Experiments:
D(3) dopamine receptor = D(3) dopamine receptor (Homo sapiens, UniProt P35462); test: (§1) PDSP Secondary Binding target: DRD3 - Compounds are tested at 10 uM concentration, plate are incubated at room temperature in the dark for 90 minutes. Reaction are stopped by vacuum filtration onto 0.3% polyethyleneimine soaked filter mats using Filtermate harvester. Scintillation cocktail is then melted onto microwave-dried filters on a hot plate and the radio activity is counted in Microbia counter.
[1] = molecular target: 5-hydroxytryptamine receptor 1D (Homo sapiens, UniProt P28221); test: as §1, with “HTR1D” for “DRD3”
[2] = molecular target: Sigma non-opioid intracellular receptor 1 (Homo sapiens, UniProt Q99720); test: as §1, with “SIGMAR1” for “DRD3”
[3] = molecular target: Sodium-dependent noradrenaline transporter (Homo sapiens, UniProt P23975); test: as §1, with “SLC6A2” for “DRD3”
[4] = molecular target: 5-hydroxytryptamine receptor 6 (Homo sapiens, UniProt P50406); test: as §1, with “HTR6” for “DRD3”
Histamine H2 receptor = Histamine H2 receptor (Homo sapiens, UniProt P25021); test: as §1, with “HRH2” for “DRD3”
[5] = molecular target: Muscarinic acetylcholine receptor M3 (Homo sapiens, UniProt P20309); test: as §1, with “CHRM3” for “DRD3”
[6] = molecular target: T1, 5-hydroxytryptamine receptor 3A (Homo sapiens, UniProt P46098); test: as §1, with “HTR3A” for “DRD3”
T1 sequence (P46098 whole entry): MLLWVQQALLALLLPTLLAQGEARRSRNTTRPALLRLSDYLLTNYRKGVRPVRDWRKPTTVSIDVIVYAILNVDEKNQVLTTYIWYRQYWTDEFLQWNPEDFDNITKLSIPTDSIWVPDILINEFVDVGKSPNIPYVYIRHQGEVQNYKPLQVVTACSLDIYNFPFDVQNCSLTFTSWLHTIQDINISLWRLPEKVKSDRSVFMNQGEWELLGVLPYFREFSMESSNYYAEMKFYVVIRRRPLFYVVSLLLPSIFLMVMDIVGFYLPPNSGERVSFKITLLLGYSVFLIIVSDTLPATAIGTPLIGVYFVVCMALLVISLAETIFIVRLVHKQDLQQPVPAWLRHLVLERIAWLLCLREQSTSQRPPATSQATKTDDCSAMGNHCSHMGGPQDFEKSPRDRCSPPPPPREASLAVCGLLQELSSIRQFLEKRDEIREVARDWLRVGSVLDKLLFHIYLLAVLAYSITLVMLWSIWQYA

[7] = molecular target: 5-hydroxytryptamine receptor 2A (Homo sapiens, UniProt P28223); test: as §1, with “HTR2A” for “DRD3”
D(2) dopamine receptor = D(2) dopamine receptor (Homo sapiens, UniProt P14416); test: as §1, with “DRD2” for “DRD3”
D(1B) dopamine receptor = D(1B) dopamine receptor (Homo sapiens, UniProt P21918); test: as §1, with “DRD5” for “DRD3”
[8] = molecular target: T2, Alpha-1B adrenergic receptor (Homo sapiens, UniProt P35368); test: as §1, with “ADRA1B” for “DRD3”
T2 sequence (P35368 whole entry): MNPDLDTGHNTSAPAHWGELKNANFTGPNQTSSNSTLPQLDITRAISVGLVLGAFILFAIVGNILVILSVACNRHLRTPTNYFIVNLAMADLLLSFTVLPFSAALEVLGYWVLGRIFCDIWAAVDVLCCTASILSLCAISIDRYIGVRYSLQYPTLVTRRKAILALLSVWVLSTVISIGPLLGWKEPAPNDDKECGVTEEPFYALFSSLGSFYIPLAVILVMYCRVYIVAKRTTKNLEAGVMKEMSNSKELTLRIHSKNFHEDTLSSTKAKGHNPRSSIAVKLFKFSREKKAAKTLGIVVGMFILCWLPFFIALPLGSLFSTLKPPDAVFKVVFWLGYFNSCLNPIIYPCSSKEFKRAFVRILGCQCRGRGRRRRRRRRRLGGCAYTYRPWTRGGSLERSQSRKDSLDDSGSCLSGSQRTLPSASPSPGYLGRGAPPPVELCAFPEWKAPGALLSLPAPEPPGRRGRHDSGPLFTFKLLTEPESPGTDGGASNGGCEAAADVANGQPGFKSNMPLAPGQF

[9] = molecular target: T3, Muscarinic acetylcholine receptor M1 (Homo sapiens, UniProt P11229); test: as §1, with “CHRM1” for “DRD3”
T3 sequence (P11229 whole entry): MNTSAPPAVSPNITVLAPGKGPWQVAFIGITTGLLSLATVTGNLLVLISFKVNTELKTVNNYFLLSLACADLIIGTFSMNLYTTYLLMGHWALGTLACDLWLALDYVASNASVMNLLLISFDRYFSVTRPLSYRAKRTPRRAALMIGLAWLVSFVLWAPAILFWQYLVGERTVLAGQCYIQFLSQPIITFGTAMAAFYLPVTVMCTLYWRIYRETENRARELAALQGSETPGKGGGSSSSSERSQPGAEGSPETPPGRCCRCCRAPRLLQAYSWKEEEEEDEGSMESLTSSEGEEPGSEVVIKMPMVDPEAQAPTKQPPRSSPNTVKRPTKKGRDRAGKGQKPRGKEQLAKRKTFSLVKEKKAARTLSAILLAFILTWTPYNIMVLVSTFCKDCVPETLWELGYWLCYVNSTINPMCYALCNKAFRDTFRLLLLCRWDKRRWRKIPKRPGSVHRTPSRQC

[10] = molecular target: T4, Alpha-1D adrenergic receptor (Homo sapiens, UniProt P25100); test: as §1, with “ADRA1D” for “DRD3”
T4 sequence (P25100 whole entry): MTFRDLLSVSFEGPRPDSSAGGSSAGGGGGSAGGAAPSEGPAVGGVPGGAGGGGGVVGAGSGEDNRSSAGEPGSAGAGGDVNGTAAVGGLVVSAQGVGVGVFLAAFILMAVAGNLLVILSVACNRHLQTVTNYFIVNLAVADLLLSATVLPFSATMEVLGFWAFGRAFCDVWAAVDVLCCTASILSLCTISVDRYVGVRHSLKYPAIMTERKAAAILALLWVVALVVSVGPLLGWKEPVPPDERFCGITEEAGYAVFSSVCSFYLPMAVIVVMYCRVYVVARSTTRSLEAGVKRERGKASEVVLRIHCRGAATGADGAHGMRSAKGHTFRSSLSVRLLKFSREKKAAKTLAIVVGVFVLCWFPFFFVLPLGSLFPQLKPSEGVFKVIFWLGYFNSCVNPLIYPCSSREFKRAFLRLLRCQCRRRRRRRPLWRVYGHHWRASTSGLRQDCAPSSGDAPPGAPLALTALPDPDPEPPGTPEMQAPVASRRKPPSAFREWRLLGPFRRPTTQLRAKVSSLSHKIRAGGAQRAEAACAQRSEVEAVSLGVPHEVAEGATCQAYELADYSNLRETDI

[11] = molecular target: 5-hydroxytryptamine receptor 7 (Homo sapiens, UniProt P34969); test: as §1, with “HTR7” for “DRD3”
Sequence of 5-hydroxytryptamine receptor 7 (P34969 whole entry): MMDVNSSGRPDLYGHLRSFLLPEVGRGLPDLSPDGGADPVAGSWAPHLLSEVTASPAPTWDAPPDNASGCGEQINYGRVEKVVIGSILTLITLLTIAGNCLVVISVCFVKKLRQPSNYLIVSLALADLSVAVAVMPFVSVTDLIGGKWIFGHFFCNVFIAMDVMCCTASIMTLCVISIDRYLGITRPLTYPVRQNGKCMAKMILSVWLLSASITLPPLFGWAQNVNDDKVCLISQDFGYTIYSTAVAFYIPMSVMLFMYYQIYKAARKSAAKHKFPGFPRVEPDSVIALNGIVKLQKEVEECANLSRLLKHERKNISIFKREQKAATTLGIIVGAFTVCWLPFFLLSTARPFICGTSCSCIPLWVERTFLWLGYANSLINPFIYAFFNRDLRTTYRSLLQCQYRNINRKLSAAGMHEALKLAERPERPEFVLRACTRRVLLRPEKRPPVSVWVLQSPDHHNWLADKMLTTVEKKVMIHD

Sequence of D(1B) dopamine receptor (P21918 whole entry): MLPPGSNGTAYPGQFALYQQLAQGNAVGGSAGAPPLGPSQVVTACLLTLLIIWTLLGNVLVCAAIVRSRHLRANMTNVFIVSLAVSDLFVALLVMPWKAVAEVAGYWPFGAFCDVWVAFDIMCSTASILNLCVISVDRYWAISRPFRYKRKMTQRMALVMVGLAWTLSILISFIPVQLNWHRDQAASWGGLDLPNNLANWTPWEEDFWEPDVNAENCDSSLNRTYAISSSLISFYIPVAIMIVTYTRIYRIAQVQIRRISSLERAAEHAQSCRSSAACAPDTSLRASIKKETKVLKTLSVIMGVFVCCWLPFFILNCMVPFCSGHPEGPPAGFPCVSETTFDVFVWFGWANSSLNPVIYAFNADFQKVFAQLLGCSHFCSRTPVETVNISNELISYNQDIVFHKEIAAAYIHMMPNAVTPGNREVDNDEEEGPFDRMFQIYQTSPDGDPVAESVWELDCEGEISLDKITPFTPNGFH
Sequence of 5-hydroxytryptamine receptor 1D (P28221 whole entry): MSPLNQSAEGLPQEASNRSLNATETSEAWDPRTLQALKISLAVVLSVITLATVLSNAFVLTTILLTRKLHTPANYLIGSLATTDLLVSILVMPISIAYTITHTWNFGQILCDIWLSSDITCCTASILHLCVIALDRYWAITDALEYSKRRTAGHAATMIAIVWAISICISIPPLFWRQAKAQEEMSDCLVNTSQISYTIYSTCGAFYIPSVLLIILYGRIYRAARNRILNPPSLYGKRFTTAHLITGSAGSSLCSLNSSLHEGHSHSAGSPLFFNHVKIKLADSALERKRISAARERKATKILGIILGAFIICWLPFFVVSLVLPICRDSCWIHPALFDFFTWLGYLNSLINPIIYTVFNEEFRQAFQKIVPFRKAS
Sequence of Histamine H2 receptor (P25021 whole entry): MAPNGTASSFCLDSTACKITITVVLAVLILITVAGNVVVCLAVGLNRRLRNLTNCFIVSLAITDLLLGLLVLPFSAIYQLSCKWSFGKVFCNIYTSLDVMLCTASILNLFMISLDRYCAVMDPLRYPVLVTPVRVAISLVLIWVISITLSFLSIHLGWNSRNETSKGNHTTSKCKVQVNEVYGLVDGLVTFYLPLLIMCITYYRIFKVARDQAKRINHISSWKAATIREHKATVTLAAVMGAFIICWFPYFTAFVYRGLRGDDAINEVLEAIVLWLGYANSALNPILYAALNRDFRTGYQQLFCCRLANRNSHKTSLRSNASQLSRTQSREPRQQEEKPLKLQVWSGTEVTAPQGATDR
Sequence of D(2) dopamine receptor (P14416 whole entry): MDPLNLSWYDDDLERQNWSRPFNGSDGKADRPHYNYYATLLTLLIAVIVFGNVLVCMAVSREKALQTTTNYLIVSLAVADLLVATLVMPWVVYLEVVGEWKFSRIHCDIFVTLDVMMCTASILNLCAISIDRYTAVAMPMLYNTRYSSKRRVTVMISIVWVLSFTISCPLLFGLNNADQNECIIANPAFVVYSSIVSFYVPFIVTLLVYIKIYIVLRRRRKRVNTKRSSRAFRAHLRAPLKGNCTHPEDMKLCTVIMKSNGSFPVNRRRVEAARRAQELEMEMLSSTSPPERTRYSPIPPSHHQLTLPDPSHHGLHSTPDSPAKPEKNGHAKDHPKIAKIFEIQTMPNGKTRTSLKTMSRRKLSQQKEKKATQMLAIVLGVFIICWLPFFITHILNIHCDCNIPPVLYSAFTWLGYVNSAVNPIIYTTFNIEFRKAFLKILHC
Sequence of D(3) dopamine receptor (P35462 whole entry): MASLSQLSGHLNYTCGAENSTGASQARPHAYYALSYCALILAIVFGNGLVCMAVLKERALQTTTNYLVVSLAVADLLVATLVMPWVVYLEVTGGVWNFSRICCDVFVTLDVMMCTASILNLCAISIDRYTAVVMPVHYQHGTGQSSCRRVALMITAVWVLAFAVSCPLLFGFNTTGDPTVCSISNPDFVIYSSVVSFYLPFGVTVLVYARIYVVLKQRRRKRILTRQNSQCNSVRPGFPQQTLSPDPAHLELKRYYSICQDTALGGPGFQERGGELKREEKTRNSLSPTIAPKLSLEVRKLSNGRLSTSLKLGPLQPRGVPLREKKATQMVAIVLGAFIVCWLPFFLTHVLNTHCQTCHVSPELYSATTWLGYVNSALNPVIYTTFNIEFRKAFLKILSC
Sequence of Sigma non-opioid intracellular receptor 1 (Q99720 whole entry): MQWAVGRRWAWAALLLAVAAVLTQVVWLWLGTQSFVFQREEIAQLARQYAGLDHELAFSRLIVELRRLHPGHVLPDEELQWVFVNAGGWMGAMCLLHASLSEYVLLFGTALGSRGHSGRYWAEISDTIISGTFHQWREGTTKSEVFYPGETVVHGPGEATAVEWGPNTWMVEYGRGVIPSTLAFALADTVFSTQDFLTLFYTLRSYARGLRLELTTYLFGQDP
Sequence of Sodium-dependent noradrenaline transporter (P23975 whole entry): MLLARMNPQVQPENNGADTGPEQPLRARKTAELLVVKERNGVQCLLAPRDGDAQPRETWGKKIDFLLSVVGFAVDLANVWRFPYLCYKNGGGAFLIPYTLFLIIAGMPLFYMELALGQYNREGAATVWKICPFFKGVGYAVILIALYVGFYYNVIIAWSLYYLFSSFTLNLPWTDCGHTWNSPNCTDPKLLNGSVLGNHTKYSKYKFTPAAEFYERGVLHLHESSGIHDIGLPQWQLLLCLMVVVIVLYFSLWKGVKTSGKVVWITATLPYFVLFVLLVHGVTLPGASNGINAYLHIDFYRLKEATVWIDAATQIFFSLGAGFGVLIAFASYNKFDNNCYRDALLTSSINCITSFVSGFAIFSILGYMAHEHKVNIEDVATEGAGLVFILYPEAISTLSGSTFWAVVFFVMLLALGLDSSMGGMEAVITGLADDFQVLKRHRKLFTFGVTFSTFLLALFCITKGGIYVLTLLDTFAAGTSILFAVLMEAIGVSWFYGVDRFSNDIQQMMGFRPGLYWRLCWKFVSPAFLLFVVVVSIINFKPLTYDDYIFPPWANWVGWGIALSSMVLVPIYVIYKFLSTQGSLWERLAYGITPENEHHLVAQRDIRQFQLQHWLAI
Sequence of Muscarinic acetylcholine receptor M3 (P20309 whole entry): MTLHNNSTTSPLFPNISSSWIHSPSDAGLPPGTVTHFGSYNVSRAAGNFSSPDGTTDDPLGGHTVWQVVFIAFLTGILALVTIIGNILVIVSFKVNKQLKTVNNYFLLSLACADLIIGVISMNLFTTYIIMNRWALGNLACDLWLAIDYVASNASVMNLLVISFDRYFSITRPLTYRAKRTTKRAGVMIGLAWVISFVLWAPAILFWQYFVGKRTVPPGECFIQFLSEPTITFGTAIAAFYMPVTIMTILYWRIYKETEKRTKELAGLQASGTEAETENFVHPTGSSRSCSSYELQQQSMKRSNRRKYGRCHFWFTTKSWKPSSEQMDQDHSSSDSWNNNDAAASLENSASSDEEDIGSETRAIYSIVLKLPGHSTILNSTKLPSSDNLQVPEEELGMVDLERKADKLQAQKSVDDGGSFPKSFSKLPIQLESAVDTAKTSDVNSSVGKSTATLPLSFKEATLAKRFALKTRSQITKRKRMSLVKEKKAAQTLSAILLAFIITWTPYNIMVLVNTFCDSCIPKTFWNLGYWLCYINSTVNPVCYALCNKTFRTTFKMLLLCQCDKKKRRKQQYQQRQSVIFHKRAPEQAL
Sequence of 5-hydroxytryptamine receptor 2A (P28223 whole entry): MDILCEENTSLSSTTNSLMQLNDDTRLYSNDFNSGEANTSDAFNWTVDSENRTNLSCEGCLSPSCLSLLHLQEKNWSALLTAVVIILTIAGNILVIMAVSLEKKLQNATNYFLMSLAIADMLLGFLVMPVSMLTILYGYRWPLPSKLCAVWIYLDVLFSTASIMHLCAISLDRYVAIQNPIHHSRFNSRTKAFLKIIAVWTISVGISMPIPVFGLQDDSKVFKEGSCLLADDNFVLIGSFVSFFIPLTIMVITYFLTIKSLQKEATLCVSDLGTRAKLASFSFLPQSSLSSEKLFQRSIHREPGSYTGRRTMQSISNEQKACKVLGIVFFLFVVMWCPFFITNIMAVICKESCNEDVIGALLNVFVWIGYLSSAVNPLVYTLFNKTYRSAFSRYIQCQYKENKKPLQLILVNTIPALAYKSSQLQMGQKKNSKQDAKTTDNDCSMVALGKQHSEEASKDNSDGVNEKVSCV
Sequence of 5-hydroxytryptamine receptor 6 (P50406 whole entry): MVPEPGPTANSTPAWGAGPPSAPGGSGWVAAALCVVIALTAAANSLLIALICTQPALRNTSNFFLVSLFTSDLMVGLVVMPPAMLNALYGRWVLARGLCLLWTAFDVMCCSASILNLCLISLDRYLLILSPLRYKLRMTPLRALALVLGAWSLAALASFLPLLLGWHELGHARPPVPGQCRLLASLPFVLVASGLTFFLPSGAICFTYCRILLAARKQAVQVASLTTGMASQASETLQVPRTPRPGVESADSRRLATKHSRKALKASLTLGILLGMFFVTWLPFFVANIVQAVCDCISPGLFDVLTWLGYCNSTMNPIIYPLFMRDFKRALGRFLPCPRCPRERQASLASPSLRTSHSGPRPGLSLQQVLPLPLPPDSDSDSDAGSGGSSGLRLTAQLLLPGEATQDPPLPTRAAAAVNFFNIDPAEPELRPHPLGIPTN

## CN1C2CCC1CC(OC(c1ccc(F)cc1)c1ccc(F)cc1)C2 (stereo not given)
D(3) dopamine receptor
  Ki: 116 nM
[1]
  Ki: 1130 nM
[2]
  Ki: 98.8 nM
[3]
  Ki: 769 nM
[4]
  Ki: 374 nM
Histamine H2 receptor
  Ki: 594 nM
[5]
  Ki: 5.82 nM
[6]
  Ki: 2070 nM
[7]
  Ki: 17.4 nM
D(2) dopamine receptor
  Ki: 767 nM
D(1B) dopamine receptor
  Ki: 393 nM
[8]
  Ki: 263 nM
[9]
  Ki: 9.74 nM
[10]
  Ki: 58.2 nM
[11]
  Ki: 126 nM

From ChEMBL document CHEMBL5442175, “EUbOPEN Chemogenomics Library - PDSP Secondary Binding” (2024)
